Consider 1 compound from publication PMC11096368, “Transcriptomic signature, bioactivity and safety of a non-hepatotoxic analgesic generating AM404 in the midbrain PAG region” (Scientific Reports, 2024).

“Also recorded” adds a separate entry of the source.

The subject of data set [1] is beagle dogs. Briefly: Cardiovascular effect in conscious telemetered beagle dogs (GLP). The note with it: oral, 30, 90, 150 mg/kg. Type of data set: in vivo, dog. As to the method:
The effects of SRP-001 on hERG current amplitude at physiologic temperatures were evaluated over a nominal concentration range of 0.1 μM to […]. A vehicle group (10% DMSO) was included in the study for comparison, and dofetilide (10 nM) was used as a reference substance. The vehicle and positive controls indicated appropriate sensitivity of the test systems. […] Next, the potential acute effects of oral SRP-001 on cardiovascular function in conscious telemetered beagle dogs was done using a Latin Square design; 4 male naïve beagle dogs each received vehicle (10% DMSO: 10% labrasol: 80% PEG400) and three doses (30, 90, and 150 mg/kg) of SRP-001 nanosuspension by oral gavage. […] A single dose was administered on the day of dosing, and a washout period of seven days was allowed between doses. One-min means of hemodynamic parameters, as well as ECG parameters and body temperature, were measured for a period of at least 24 h. One-min tracings of the ECGs were obtained at 15 min prior to dosing and at 30 min, 1, 2, 4, 8, 12, and 24 h post-dose. Qualitative evaluation of the ECGs was done by a board-certified veterinary cardiologist.

Data set [2] concerns Salmonella typhimurium strains TA98, TA100, TA1535, TA1537, and E. coli WP2 uvrA. Briefly: Ames bacterial reverse mutation assay. Type of data set: cell-based, Escherichia coli. As to the method: SRP-001 was tested to evaluate its mutagenic potential by measuring its ability to induce reverse mutations at selected loci of several strains of Salmonella typhimurium (S. typhimurium) and at the tryptophan locus of Escherichia coli (E. coli) strain WP2 uvrA in the presence and absence of an exogenous metabolic activation system (Bioreliance, Rockville, MD USA). Dimethyl sulfoxide (10% DMSO) was used as the vehicle. The dose levels tested in the preliminary toxicity assay were 6.67, 10.0, 33.3, 66.7, 100, 333, 667, 1000, 3333, and 5000 µg per plate. No precipitate was observed. […] The dose levels tested in the mutagenicity assay were 100, 333, 667, 1000, 3333, and 5000 µg per plate.

Data set [3] in a line: Toxicokinetics following IV & PO dosing. Type of data set: in vivo, dog. Particulars: beagle dogs. From the text:
Supplementary Fig. 19. Toxicokinetic (TK) beagle dog data.

The test system of data set [4] is beagle dogs. Briefly: Two-day oral dose toxicity and pharmacokinetic study (non-GLP). Type of data set: in vivo. As to the method:
SRP-001 was supplied by Olon Ricerca Bioscience as an off-white powder and then prepared as dosing suspensions for oral administration via gavage (Calvert Labs/Altasciences, Scott Township, PA USA). Six experimentally non-naïve male Beagle dogs (3/dose), at least 7 months old and weighing 7.2 to 10.2 kg prior to treatment initiation, were administered 100 or 900 mg/kg/d SRP-001. Animals were dosed three times daily (3–5 h between doses) for 2 d. Mortality/morbidity was performed twice daily. On the day of dosing, animals were observed prior to each dose administration and approximately 1–3 h after each dose. Animals were also observed once on day 3. Body weights were recorded for all animals prior to the first dose administration on days 1 and 3, and food consumption was recorded daily. Blood for bioanalytical evaluation was collected at selected timepoints on day 1. Following the completion of the study, surviving animals were not euthanized and were returned to the Calvert colony. […]
Following a single administration of 900 mg SRP-001 oral suspension in the fed state, plasma concentrations of SRP-001 were observed from the first sampling time-point of 1 h post-dose for all subjects. […] In a two-day oral dose toxicity and pharmacokinetic (PK) study of […] in Beagle dogs, peak plasma concentrations of SRP-001 were detected within a 30-min to 1-h window post-administration. […]

The subject of data set [5] is Peripheral blood reticulocytes. Briefly: In vivo mammalian micronucleus assay. On the set-up: species or system rats. As to the method:
Male rats were dosed at 500, 1000, and 2000 mg/kg/d once per day on two consecutive days at 10 mL/kg via oral gavage using 10% labrasol, 10% DMSO, and 80% PEG400 as the vehicle (Bioreliance, Rockville, MD USA). Approximately 48 h after the second dose administration, peripheral blood was collected for flow cytometric analysis of micronuclei. There was no significant increase in the incidence of micronuclei in the test article-dosed animals compared to the concurrent vehicle control. The vehicle control value was compatible with the historical range of % micronucleated reticulocytes (MnRETs). There was a statistically significant increase in MnRETs in the positive control compared to the concurrent vehicle control.

`CCN(CC)C(=O)c1ccccc1S(=O)(=O)NCC(=O)Nc1ccc(O)cc1` [SRP-001, N,N-diethyl-2-[[2-(4-hydroxyanilino)-2-oxo-ethyl]sulfamoyl]benzamide]: the “Cardiovascular findings (blood pressure, heart rate, ECG, body temperature)” value in data set [1] is given as “did not induce any biologically relevant effects; also recorded: No significant findings”. For the same compound, in data set [2] (preliminary toxicity assay, tester strains TA1537 and WP2 uvrA, absence of S9), the “Dose with toxicity (reduction in the revertant count)” value is on record as 5000 µg per plate. Further, in data set [2] (up to 5000 µg per plate, presence or absence of S9 activation), the “Mutagenic response (reverse mutations)” value is reported as “negative; also recorded: No positive mutagenic responses; also recorded: No positive mutagenic responses were observed with any of the tester strains in either the presence or absence of S9 activation”. Further, in data set [3], the Exposure versus dose result is “dose-dependent response” and the “Time of Cmax” value lay in the range of 15 to 30 min. In data set [4] (3 times daily for 2 days), the Dose tolerated stood at 900 mg/kg/day. Further, in data set [4] (dog, in vivo), the “Time of peak plasma concentrations post-administration” value was 30-min to 1-h. Further, the Micronucleus assay result in data set [5] (500, 1000, 2000 mg/kg/day, 2 days, oral gavage) is “negative (non-clastogenic); also recorded: Under the conditions of this study, the administration of SRP-001 at doses up to and including a dose of 2000 mg/kg/day was concluded to be negative in the Micronucleus assay”. Besides, in data set [5] (treatment groups versus vehicle), the “% RETs (reticulocytes)” value was “Statistically significant decreases”.
